SMILES strings stand for the structures. Like-named read-outs stand apart in the source and are kept apart here. A value given as a limit tells only on which side of the number the result lay.

In data set [1] the target is NDM-1 (Klebsiella pneumoniae, UniProt C7C422). The experiment in a line: In vitro enzyme inhibition assay, purified NDM-1 (imipenem hydrolysis, UV 299 nm). In kind it is biochemical. The procedure:
(§1) Enzyme inhibition assays were performed using purified MBL enzymes (NDM-1; VIM-1; VIM-2; IMP-1) in 10 mM HEPES buffer pH 7.5 in 96-well microtiter plates. Imipenem (300 μM) was used as substrate and its hydrolysis was followed at UV 299 nm during 10 mn every 30 seconds using a Perkin Elmer Envision UV fluorescence plate reader.
(§2) Mean Ki values from multiple experiments are presented below.
(§3) Studies were undertaken to compare the compounds of the invention with structurally similar compounds (“Comp. x”). Experiments were conducted as described above.

The target in data set [2] is VIM-1 (Pseudomonas aeruginosa, UniProt A0A0F7KYQ8). The experiment in a line: In vitro enzyme inhibition assay, purified VIM-1 (imipenem hydrolysis, UV 299 nm). In kind it is biochemical. The procedure:
as §1, §2, §3

Data set [3] has as its target IMP-1 (Serratia marcescens, UniProt P52699). The experiment in a line: In vitro enzyme inhibition assay, purified IMP-1 (imipenem hydrolysis, UV 299 nm). In kind it is biochemical. The procedure:
as §1, §2, §3

Data set [4] in a line: Plasma stability of test compounds in human plasma. In kind it is in vitro ADME. To be noted: after 2 hours; 1 μM, 37° C. The procedure: [table] Test compound and QC compound were incubated at a final concentration of 1 μM in plasma at 37° C. in shaker water bath with gentle shaking. At predetermined time points, reaction was terminated with 200 μL of acetonitrile containing internal standard and centrifuged at 4000×RCF, 4° C. for 20 minutes. Supernatant was separated and analyzed by LC-MS/MS. The following equation was used to determine the percentage remaining of test/QC compound following the procedure above: […]

Data set [5] concerns the target VIM-2 (Escherichia coli, UniProt Q5U7L7). The experiment in a line: In vitro enzyme inhibition assay, purified VIM-2 (imipenem hydrolysis, UV 299 nm). In kind it is biochemical. The procedure: as §1, §2, §3
Where [6] appears, read: comparative study bands, read-out: Ki NDM-1 (comparative study).
The mark [7] stands for this setting: comparative study bands, read-out: Ki VIM-1 (comparative study).
Where [8] appears, read: comparative study bands, read-out: Ki IMP-1 (comparative study).
Where [9] appears, read: mean Ki from multiple experiments, imipenem 300 μM, Cheng-Prusoff from IC50, read-out: Ki NDM-1.
[10] abbreviates: mean Ki from multiple experiments, imipenem 300 μM, Cheng-Prusoff from IC50, read-out: Ki VIM-1.
Setting [11] is: mean Ki from multiple experiments, imipenem 300 μM, Cheng-Prusoff from IC50, read-out: Ki VIM-2.
[12] abbreviates: mean Ki from multiple experiments, imipenem 300 μM, Cheng-Prusoff from IC50, read-out: Ki IMP-1.
The mark [13] stands for this setting: comparative study bands, read-out: Ki VIM-2 (comparative study).

Chain of IMP-1 (P52699 19-246, looked up, species assumed): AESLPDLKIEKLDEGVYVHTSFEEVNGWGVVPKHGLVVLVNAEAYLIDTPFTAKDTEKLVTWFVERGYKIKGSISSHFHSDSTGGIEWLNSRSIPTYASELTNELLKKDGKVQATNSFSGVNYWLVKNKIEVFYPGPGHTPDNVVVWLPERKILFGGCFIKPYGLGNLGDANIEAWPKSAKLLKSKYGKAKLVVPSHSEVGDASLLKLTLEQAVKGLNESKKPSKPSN
Chain of NDM-1 (C7C422 29-270, looked up): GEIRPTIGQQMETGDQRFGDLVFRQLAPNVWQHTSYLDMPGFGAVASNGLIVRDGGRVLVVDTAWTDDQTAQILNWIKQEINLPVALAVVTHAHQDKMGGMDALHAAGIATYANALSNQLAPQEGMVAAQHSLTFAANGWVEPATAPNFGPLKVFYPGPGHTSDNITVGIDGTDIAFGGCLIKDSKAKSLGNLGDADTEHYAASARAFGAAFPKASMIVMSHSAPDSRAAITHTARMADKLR

Take `COc1cc(S(=O)(=O)Nc2scnc2C(=O)O)ccc1NC(=O)CN` [Comp. E, reference compound]: the Ki was in the range of 100 to 300 nM in data set [1] (setting [6]), 300 to 500 nM in data set [2] (setting [7]) and 600 to 5000 nM in data set [3] (setting [8]). The “Stability in human plasma, % remaining” value in data set [4] is reported as 29% remaining after 2 hours.
For the compound `O=C(CNC1=NCCN1)Nc1cc(F)c(S(=O)(=O)Nc2scnc2C(=O)O)cc1F` [Example 10, 5-[[4-[[2-(4,5-dihydro-1H-imidazol-2-ylamino)acetyl]amino]-2,5-difluoro-phenyl]sulfonylamino]thiazole-4-carboxylic acid], the Ki is less than 50 nM in data set [1] (setting [9]), less than 200 nM in data set [2] (setting [10]), less than 20 nM in data set [5] (setting [11]) and 500 to 1000 nM in data set [3] (setting [12]).
The like results for `N=C(N)CC(=O)Nc1c(F)cc(S(=O)(=O)Nc2scnc2C(=O)O)cc1F` [Example 13, 5-[[4-[(3-amino-3-imino-propanoyl)amino]-3,5-difluoro-phenyl]sulfonylamino]thiazole-4-carboxylic acid] were, in that order, less than 50 nM, less than 200 nM, 50 to 150 nM and 500 to 1000 nM.
`N=C(N)NCC(=O)Nc1ccc(S(=O)(=O)Nc2scnc2C(=O)O)cc1Cl` [Example 17, 5-[[3-chloro-4-[(2-guanidinoacetyl)amino]phenyl]sulfonylamino]thiazole-4-carboxylic acid]: the Ki in data set [1] (setting [6]) is 30 to 100 nM; in data set [1] (setting [9]) it was 50 to 200 nM; in data set [2] (setting [7]) it was less than 150 nM; in data set [2] (setting [10]), less than 200 nM; in data set [5] (setting [13]), less than 20 nM; in data set [5] (setting [11]) it was less than 20 nM. The values for the Ki in data set [3] (setting [8]) and in data set [3] (setting [12]) were less than 150 nM and less than 500 nM, respectively.
Take `N=C(N)NCC(=O)Nc1ccc(S(=O)(=O)Nc2scnc2C(=O)O)cc1OC(F)(F)F` [Example 18, 5-[[4-[(2-guanidinoacetyl)amino]-3-(trifluoromethoxy)phenyl]sulfonylamino] thiazole-4-carboxylic acid]: the Ki in data set [1] (setting [6]) was 30 to 100 nM; in data set [1] (setting [9]), 50 to 200 nM; in data set [2] (setting [7]) it was less than 150 nM; in data set [2] (setting [10]), less than 200 nM; in data set [5] (setting [13]), less than 20 nM; in data set [5] (setting [11]), less than 20 nM. Besides, the Ki is less than 150 nM in data set [3] (setting [8]) and less than 500 nM in data set [3] (setting [12]).
Take `N=C(N)NCCC(=O)Nc1ccc(S(=O)(=O)Nc2scnc2C(=O)O)cc1F` [Example 19, 5-[[3-fluoro-4-(3-guanidinopropanoylamino)phenyl]sulfon-ylamino]thiazole-4-carboxylic acid]: the Ki in data set [1] (setting [9]) lay within 50 to 200 nM; in data set [2] (setting [10]), 200 to 500 nM; in data set [5] (setting [11]) it was 20 to 50 nM; in data set [3] (setting [12]), 1000 to 10000 nM.
As for `CNC(=N)CC(=O)Nc1ccc(S(=O)(=O)Nc2scnc2C(=O)O)cc1F` [Example 22, 5-[[3-fluoro-4-[[3-imino-3-(methylamino)propanoyl]amino]phenyl]sulfonylamino]thiazole-4-carboxylic acid], the Ki in data set [1] (setting [9]) is less than 50 nM; in data set [2] (setting [10]) it was 200 to 500 nM; in data set [5] (setting [11]), 50 to 150 nM; in data set [3] (setting [12]) it was 1000 to 10000 nM.
In the case of `N=C(N)NCC(=O)Nc1ncc(S(=O)(=O)Nc2scnc2C(=O)O)s1` [Example 23, 5-[[2-[(2-guanidinoacetyl)amino]thiazol-5-yl]sulfonylamino]thiazole-4-carboxylic acid], the Ki in data set [1] (setting [9]) was less than 50 nM; in data set [2] (setting [10]), less than 200 nM; in data set [5] (setting [11]) it was 20 to 50 nM; in data set [3] (setting [12]), 1000 to 10000 nM.
For `N=C(N)NCCOC(=O)Nc1ccc(S(=O)(=O)Nc2scnc2C(=O)O)cc1F` [Example 27, 5-[[3-fluoro-4-(2-guanidinoethoxycarbonylamino)phenyl]sulfonylamino]thiazole-4-carboxylic acid], in that order: less than 50 nM, less than 200 nM, less than 20 nM and 500 to 1000 nM.
For `N=C(N)NC(=O)Nc1ccc(S(=O)(=O)Nc2scnc2C(=O)O)cc1F` [Example 28, 5-[[4-(carbamimidoylcarbamoyl-amino)-3-fluoro-phenyl]sulfonylamino] thiazole-4-carboxylic acid], in that order: 50 to 200 nM, less than 200 nM, less than 20 nM and less than 500 nM.
As for `N=C(N)NNC(=O)Nc1ccc(S(=O)(=O)Nc2scnc2C(=O)O)cc1F` [Example 29, 5-[[3-fluoro-4-(guanidinocarbamoylamino)phenyl]sulfonylamino]thiazole-4-carboxylic acid], the Ki in data set [1] (setting [6]) is less than 30 nM; in data set [1] (setting [9]), less than 50 nM; in data set [2] (setting [7]) it was 150 to 300 nM; in data set [2] (setting [10]), 200 to 500 nM; in data set [5] (setting [13]), 20 to 50 nM; in data set [5] (setting [11]), 20 to 50 nM. The Ki in data set [3] (setting [8]) is 600 to 5000 nM; in data set [3] (setting [12]) it was 1000 to 10000 nM.
With `N=C(N)CNC(=O)Nc1ccc(S(=O)(=O)Nc2scnc2C(=O)O)cc1F` [Example 30, 5-[[4-[(2-amino-2-imino-ethyl)carbamoylamino]-3-fluoro-phenyl]sulfonylamino]thiazole-4-carboxylic acid], the inhibition constant Ki in data set [1] (setting [9]) is less than 50 nM; in data set [2] (setting [10]), 200 to 500 nM; in data set [5] (setting [11]) it was 20 to 50 nM; in data set [3] (setting [12]), 1000 to 10000 nM.
Consider `N=C(N)NCCSC(=O)Nc1ccc(S(=O)(=O)Nc2scnc2C(=O)O)cc1F` [Example 31, 5-[[3-fluoro-4-(2-guanidinoethylsulfanyl-carbonylamino)phenyl]sulfonylamino]thiazole-4-carboxylic acid], for which the Ki in data set [1] (setting [9]) was less than 50 nM; in data set [2] (setting [10]), less than 200 nM; in data set [5] (setting [11]) it was 20 to 50 nM; in data set [3] (setting [12]), less than 500 nM.
For `O=C(CNC1=NCCN1)Nc1ccc(S(=O)(=O)Nc2scnc2C(=O)O)cc1F` [Example 32], in that order: 50 to 200 nM, 200 to 500 nM, 20 to 50 nM and 1000 to 10000 nM.
The like results for `N#CNC(=N)NCC(=O)Nc1ccc(S(=O)(=O)Nc2scnc2C(=O)O)cc1F` [Example 34, 5-[[4-[[2-[(N-cyanocarbamimidoyl)amino]acetyl]amino]-3-fluoro-phenyl]sulfonylamino]thiazole-4-carboxylic acid] were, in that order, less than 50 nM, 500 to 1000 nM, 20 to 50 nM and less than 500 nM.
`N=C(N)CCC(=O)Nc1ccc(S(=O)(=O)Nc2scnc2C(=O)O)cc1F` [Example 35, 5-[[4-[(4-amino-4-imino-butanoyl)amino]-3-fluoro-phenyl]sulfonylamino]thiazole-4-carboxylic acid]: the Ki in data set [1] (setting [9]) was less than 50 nM; in data set [2] (setting [10]), less than 200 nM; in data set [5] (setting [11]) it was 20 to 50 nM; in data set [3] (setting [12]), 500 to 1000 nM.
For `O=C(CCC1=NCCN1)Nc1ccc(S(=O)(=O)Nc2scnc2C(=O)O)cc1F` [Example 36, 5-[[4-[3-(4,5-dihydro-1H-imidazol-2-yl)propanoylamino]-3-fluoro-phenyl]sulfonylamino]thiazole-4-carboxylic acid], in that order: less than 50 nM, 200 to 500 nM, 50 to 150 nM and 1000 to 10000 nM.
In the case of `N=C(NCCN)NCC(=O)Nc1ccc(S(=O)(=O)Nc2scnc2C(=O)O)cc1F` [Example 39, 5-[[4-[[2-[[N-(2-aminoethyl)carbamimidoyl]amino]acetyl]amino]-3-fluoro-phenyl]sulfonylamino]thiazole-4-carboxylic acid], the Ki was 200 to 2000 nM in data set [1] (setting [9]), less than 200 nM in data set [2] (setting [10]), 20 to 50 nM in data set [5] (setting [11]) and 1000 to 10000 nM in data set [3] (setting [12]).
For `N=C(N)NNCC(=O)Nc1ccc(S(=O)(=O)Nc2scnc2C(=O)O)cc1F` [Example 41, 5-[[4-[[2-(2-carbamimidoylhydrazino)acetyl]amino]-3-fluoro-phenyl]sulfonylamino]thiazole-4-carboxylic acid], in that order: less than 50 nM, 200 to 500 nM, 20 to 50 nM and 500 to 1000 nM.
Regarding `N=C(N)Nc1ccc(S(=O)(=O)Nc2scnc2C(=O)O)cc1` [Example 44, 5-[(4-guanidinophenyl)sulfonylamino]thiazole-4-carboxylic acid], the Ki is 200 to 2000 nM in data set [1] (setting [9]), 200 to 500 nM in data set [2] (setting [10]), 50 to 150 nM in data set [5] (setting [11]) and 1000 to 10000 nM in data set [3] (setting [12]).
The like results for `N=C(N)NCC(=O)NCc1ccc(S(=O)(=O)Nc2scnc2C(=O)O)cc1F` [Example 45, 5-[[3-fluoro-4-[[(2-guanidinoacetyl)amino]methyl]phenyl]sulfonylamino]thiazole-4-carboxylic acid] were, in that order, 200 to 2000 nM, 500 to 1000 nM, 50 to 150 nM and 1000 to 10000 nM.
Consider `N=C(N)NCc1ccc(S(=O)(=O)Nc2scnc2C(=O)O)cc1F` [Example 46, 5-[[3-fluoro-4-(guanidinomethyl)phenyl]sulfonylamino]thiazole-4-carboxylic acid], for which the Ki in data set [1] (setting [9]) was 50 to 200 nM; in data set [2] (setting [10]) it was 200 to 500 nM; in data set [5] (setting [11]) it was 50 to 150 nM; in data set [3] (setting [12]), 1000 to 10000 nM.

Broadly, the Ki is the dissociation constant of the complex between target and ligand, obtained from inhibition or displacement.
